Assay results taken from patent EP0857779A1, “PROCESS FOR THE BIODEGRADATION OF AROMATIC COMPOUNDS AND SYNTHESIS OF PIGMENTS AND COLORANTS, ALCALOIDS AND POLYMERS, WITH THE USE OF THE R[…] ESCHERICHIA COLI P260” (priority 1996, dated 1998).

How the values were obtained:
[1] = target: T1, 4-HPA hydroxylase of K. pneumoniae (Klebsiella oxytoca, UniProt Q48440); experiment: Hidroxylase activity expressed by E. coli P260 on different aromatic compounds; format: biochemical; set-up: concentration or dose not given beside the values; conditions: compound as organic substrate of the enzyme expressed by E. coli P260
T1 construct: expressed in transfected cells; host or cells: E. coli CC118 (K-12) transformed with pG260 = E. coli P260 (CECT 4627)
T1 sequence (Q48440 whole entry): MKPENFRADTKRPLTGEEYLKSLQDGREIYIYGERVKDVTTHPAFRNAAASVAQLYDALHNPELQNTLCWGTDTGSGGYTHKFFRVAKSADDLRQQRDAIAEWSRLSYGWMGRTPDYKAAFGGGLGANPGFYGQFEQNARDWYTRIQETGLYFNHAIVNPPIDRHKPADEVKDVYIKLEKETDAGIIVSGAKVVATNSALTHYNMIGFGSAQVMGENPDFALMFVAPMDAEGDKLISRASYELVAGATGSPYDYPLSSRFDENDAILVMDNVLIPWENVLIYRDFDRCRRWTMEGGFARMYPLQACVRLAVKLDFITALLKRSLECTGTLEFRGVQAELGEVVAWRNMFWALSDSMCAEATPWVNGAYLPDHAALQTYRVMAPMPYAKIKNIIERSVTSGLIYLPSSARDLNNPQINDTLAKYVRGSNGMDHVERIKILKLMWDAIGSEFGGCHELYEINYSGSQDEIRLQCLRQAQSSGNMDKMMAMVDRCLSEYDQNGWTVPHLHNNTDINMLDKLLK
Source text: (§1) By means of hydroxylation, this enzyme transforms 3-HPA and 4-HPA into 3,4-DHPA which, after the subdequent action of a dioxygenase, loses its aromaticity. For the isolation of these genes, the chromosomic DNA of K. pneumoniae was isolated and digested with the restriction enzyme Bam Hl. As a cloning vector the plasmid pUC18Not was chosen (Herrero et al., 1990; J. Bacteriol. 72:6557-67), digested with BamHl and dephosphorilated. Bonding mixtures were used in the transformation of the mutant strain W-21 of E. coli (Lacrec A), a mutant deficient in the 4-HPA hydroxylase enzyme. The transformants were select on plates that contained ampicillin (100 µg/ml), IPTG and X-Gal and subsequently on selected media with Ampicillin and 4-HPA as the sole source of carbon and energy. A recombinant plasmid complemented the 4-HPA mutation of E. coli W-21 and treating this transformant with acridin orange caused reversion to the mutant phenotype (due to loss of plasmids). […] Synthesis of the enzyme was checked by determining enzymatic activity in "standard" conditions, by means of a spectrophotometric test (Martin et al., 1991; J. Gen. Microbiol. 132: 621-628). In this way it was established that the enzyme synthesized constitutively in the strains of E. coli derived from K-12 (strains incapable of metabolizing 4-HPA because they lack all the genes of the degradative route), unlike what occurs in K. pneumoniae M5a1 or E. coli W, where synthesis of the enzyme is inducible by 3-HPA and/or 4-HPA. The E. coli K-12 (E. coli CC118) strains, transformed by the recombinant plasmid, were called E. coli P260. […]
The E. coli P260 cultures produced a blackish brown pigmentation in LB or BHI as a consequence of the expression of the cloned genes. […] To investigate this hypothesis, several aromatic compounds were analyzed, different from 3-HPA and 4-HPA, as possible substrates of the enzyme (Table 2).

[2] = system: 4-HPA hidroxylase; experiment: 4-HPA hydroxylase activity of strains, spectrophotometric test in standard conditions; format: biochemical, K. pneumoniae
Source text: as §1

[3] = system: E. coli W-P260 strain; experiment: Biodegradation (mineralization) of the aromatic compound by a growing culture, 14C-CO2 trapping and HPLC; format: cell-based; conditions: minimum PJC medium with glycerol and 4-HPA 2.5 mM, 30°C, 200 rpm
Method: In a test experiment, the following procedure was carried out: the E. coli W-P260 strain (obtained by transformation of the E. coli W-21 strain, mutant in hpa genes) was grown in a minimum PJC medium supplemented with glycerol and 4-HPA 2.5 mM (10% of which was marked with ^14C in the aromatic ring). Incubation was carried out at 30°C and with stirring (200 rpm). In order to quantify the biotransformation of the aromatic ring, the CO2 formed during the process was collected on NaOH 1N located in the lid of the matrass so that it would act as a trapping agent. Samples were taken at different times (Figure 3) so as to evaluate the formation of biomass (DO 680), release of CO2 (cpm) and the disappearance of 4 HPA (measurement of concentration by HPLC). In Figure 3 it may be observed how the mineralization capacity of the E. coli W-P260 strain achieves mineralization of the aromatic compound in 12 hours.

SMILES	% ACTIVITY [1]	also measured
N[C@@H](Cc1ccc(O)c(O)c1)C(=O)O (racemic) [L-Dopa, DL-Dihydroxyphenylalanin]	10%	
O=C(O)Cc1ccccc1O [2-HPA, 2-Hydroxyphenylacetate]	< 5%	
O=C(O)c1ccc(O)c(O)c1 [3,4-DHBA, 3,4-Dihydroxybenzoate]	30%	
O=C(O)Cc1ccc(O)c(O)c1 [3,4-DHPA, 3,4-dihydroxyphenylacetate]	50%	
O=C(O)Cc1cccc(O)c1 [3-HPA]	100%	4-HPA hidroxylase ([2]; strain E. coli CC118, substrate growth Gly/4-HPA): <1; 4-HPA hidroxylase ([2]; strain E. coli P260, substrate growth Gly/4-HPA/Ap): 50±6; 4-HPA hidroxylase ([2]; strain E. coli P260, substrate growth LB/Ap): 57±9; 4-HPA hidroxylase ([2]; strain E. coli W-21 (plasmid), substrate growth Gly/4-HPA/Ap): 28±5; 4-HPA hidroxylase ([2]; strain E. coli W-21 (plasmid), substrate growth LB/Ap): <5; 4-HPA hidroxylase ([2]; strain E. coli W-21, substrate growth Gly/4-HPA): <1; 4-HPA hidroxylase ([2]; strain K. pneumoniae M5a1, substrate growth 4-HPA): 26±9; 4-HPA hidroxylase ([2]; strain K. pneumoniae M5a1, substrate growth LB): <1
O=C(O)c1ccc(O)cc1 [4-HBA, 4-Hydroxybenzoate]	15%	
O=C(O)Cc1ccc(O)cc1 [4-HPA, 4-hydroxyphenylacetate]	100%	mineralization of the aromatic compound [3]: 12 h
Oc1ccccc1O [Catecol]	30%	
N[C@@H](Cc1ccc(O)cc1)C(=O)O [L-Tyr, L-Tyrosine]	8%	
O=C(O)Cc1ccccc1 [PA, Phenylacetic acid]	< 5%	
